Results on 66 compounds are retold here after patent publication US6979686B1, “Substituted pyrazoles as p38 kinase inhibitors” (Pharmacia Corporation, priority 2001, dated 2005).

For one test, the target named is T1, human p38 kinase alpha (Homo sapiens, UniProt Q16539).
T1 construct: GST (N, cleaved yes); made in house; host or cells: E. coli DH10B
T1 sequence (Q16539 whole entry): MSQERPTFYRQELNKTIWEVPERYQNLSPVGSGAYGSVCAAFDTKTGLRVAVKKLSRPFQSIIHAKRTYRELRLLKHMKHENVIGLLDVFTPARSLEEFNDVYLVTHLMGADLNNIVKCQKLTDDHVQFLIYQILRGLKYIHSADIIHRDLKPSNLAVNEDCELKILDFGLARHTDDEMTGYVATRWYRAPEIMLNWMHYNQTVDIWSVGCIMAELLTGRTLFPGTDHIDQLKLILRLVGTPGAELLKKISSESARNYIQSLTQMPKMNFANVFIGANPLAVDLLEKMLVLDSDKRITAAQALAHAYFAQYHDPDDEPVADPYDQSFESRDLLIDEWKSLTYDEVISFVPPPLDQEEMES
Nature of the test: p38 kinase in vitro assay, phosphorylation of biotinylated PHAS-I with 32P-ATP. The test is classed as biochemical. Conditions: @ 10.0 uM.
With `CCCCC(C)NC(=O)Cn1nc(-c2ccc(F)cc2)c(-c2ccncc2)c1C` (stereo not drawn) [Example B-2319], the “P38 alpha kinase % inhib @ conc.” value was 75.0% @.
For `Cc1c(-c2ccncc2)c(-c2ccc(F)cc2)nn1CC(=O)NC(Cc1ccccc1)c1ccccc1` (stereo not drawn) [Example B-2320], the “P38 alpha kinase % inhib @ conc.” value amounted to 44.0% @.
On the same count and under the same terms, the same measure for `Cc1c(-c2ccncc2)c(-c2ccc(F)cc2)nn1CC(=O)NC1Cc2ccccc2C1` [Example B-2321]: 69.0% @; for `Cc1c(-c2ccncc2)c(-c2ccc(F)cc2)nn1CC(=O)NC1CCSC1=O` (stereo not drawn) [Example B-2323]: 69.0% @.
On the same count and under the same terms, the result for `COCC(C)NC(=O)Cn1nc(-c2ccc(F)cc2)c(-c2ccncc2)c1C` (stereo not drawn) [Example B-2325] reads 60.0% @; that for `Cc1c(-c2ccncc2)c(-c2ccc(F)cc2)nn1CC(=O)NC1CCCc2ccccc21` (stereo not drawn) [Example B-2326], 76.0% @.
On the same count and under the same terms, the result for `CCOC(=O)N1CCC(NC(=O)Cn2nc(-c3ccc(F)cc3)c(-c3ccncc3)c2C)CC1` [Example B-2329] reads 72.0% @; that for `Cc1c(-c2ccncc2)c(-c2ccc(F)cc2)nn1CC(=O)NC1CCC1` [Example B-2330], 81.0% @; that for `Cc1c(-c2ccncc2)c(-c2ccc(F)cc2)nn1CC(=O)NC(C)c1cccc2ccccc12` (stereo not drawn) [Example B-2331], 74.0% @.
With `Cc1c(-c2ccncc2)c(-c2ccc(F)cc2)nn1CC(=O)NC1CCN(Cc2ccccc2)CC1` [Example B-2332], the “P38 alpha kinase % inhib @ conc.” value amounted to 70.0% @.
Consider `Cc1c(-c2ccncc2)c(-c2ccc(F)cc2)nn1CC(=O)NC1CCCCCC1` [Example B-2335], for which the “P38 alpha kinase % inhib @ conc.” value is reported as 82.0% @.
The same measure, in the same setting: the result for `CCN(CC)CC(C)NC(=O)Cn1nc(-c2ccc(F)cc2)c(-c2ccncc2)c1C` (stereo not drawn) [Example B-2337] reads 46.0% @.
The same measure, in the same setting: the result for `Cc1c(-c2ccncc2)c(-c2ccc(F)cc2)nn1CC(=O)NC1CCN(Cc2ccccc2)C1` (stereo not drawn) [Example B-2338] reads 73.0% @; that for `Cc1c(-c2ccncc2)c(-c2ccc(F)cc2)nn1CC(=O)NC(C)CCc1ccccc1` (stereo not drawn) [Example B-2340], 35.0% @; that for `Cc1c(-c2ccncc2)c(-c2ccc(F)cc2)nn1CC(=O)NC1CC1` [Example B-2341], 75.0% @.
Consider `CCOC(=O)CC(C)NC(=O)Cn1nc(-c2ccc(F)cc2)c(-c2ccncc2)c1C` (stereo not drawn) [Example B-2343], for which the “P38 alpha kinase % inhib @ conc.” value is 43.0% @.
Take `Cc1c(-c2ccncc2)c(-c2ccc(F)cc2)nn1CC(=O)NC(C)c1ccc(Br)cc1` (stereo not drawn) [Example B-2344]: the “P38 alpha kinase % inhib @ conc.” value is 71.0% @.
Regarding `Cc1c(-c2ccncc2)c(-c2ccc(F)cc2)nn1CC(=O)NC1CCCCC1C1CCCCC1` (stereo not drawn) [Example B-2346], the “P38 alpha kinase % inhib @ conc.” value is 45.0% @.
Take `Cc1c(-c2ccncc2)c(-c2ccc(F)cc2)nn1CC(=O)NC1CCCCC1` [Example B-2347]: the “P38 alpha kinase % inhib @ conc.” value is listed as 49.0% @.
Still for that read-out and setting: the same measure for `Cc1c(-c2ccncc2)c(-c2ccc(F)cc2)nn1CC(=O)NC1CCSc2ccccc21` (stereo not drawn) [Example B-2348]: 76.0% @.
As to `COC(=O)C(Cc1ccc([N+](=O)[O-])cc1)NC(=O)Cn1nc(-c2ccc(F)cc2)c(-c2ccncc2)c1C` (stereo not drawn) [Example B-2349], the “P38 alpha kinase % inhib @ conc.” value was 75.0% @.
For the compound `Cc1c(-c2ccncc2)c(-c2ccc(F)cc2)nn1CC(=O)NC1CCC(C(C)(C)C)CC1` (stereo not drawn) [Example B-2350], the “P38 alpha kinase % inhib @ conc.” value is reported as 38.0% @.
The same measure, in the same setting: the same measure for `CCOC(=O)CC(NC(=O)Cn1nc(-c2ccc(F)cc2)c(-c2ccncc2)c1C)C(=O)OCC` (stereo not drawn) [Example B-2352]: 37.0% @; for `CC[C@H](C)[C@H](NC(=O)Cn1nc(-c2ccc(F)cc2)c(-c2ccncc2)c1C)C(=O)OC` [Example B-2353]: 38.0% @.
On the same count and under the same terms, the result for `Cc1c(-c2ccncc2)c(-c2ccc(F)cc2)nn1CC(=O)NC1CCN(CCc2c[nH]c3ccccc23)CC1` [Example B-2355] reads 84.0% @.
Same read-out and setting: the same measure for `CCCC(CCC)NC(=O)Cn1nc(-c2ccc(F)cc2)c(-c2ccncc2)c1C` [Example B-2356]: 77.0% @.
In the case of `CCN1CC(NC(=O)Cn2nc(-c3ccc(F)cc3)c(-c3ccncc3)c2C)CN1CC` [Example B-2357], the “P38 alpha kinase % inhib @ conc.” value amounted to 47.0% @.
On the same count and under the same terms, the result for `CCCN(CCC)CC(C)NC(=O)Cn1nc(-c2ccc(F)cc2)c(-c2ccncc2)c1C` (stereo not drawn) [Example B-2358] reads 17.0% @; that for `COC(=O)[C@H](COCc1ccccc1)NC(=O)Cn1nc(-c2ccc(F)cc2)c(-c2ccncc2)c1C` [Example B-2359], 76.0% @.
Turning to `COC(=O)C(Cc1cn(C)cn1)NC(=O)Cn1nc(-c2ccc(F)cc2)c(-c2ccncc2)c1C` (stereo not drawn) [Example B-2361], the “P38 alpha kinase % inhib @ conc.” value stood at 19.0% @.
The same measure, in the same setting: the same measure for `COC(=O)[C@H](CC(C)C)NC(=O)Cn1nc(-c2ccc(F)cc2)c(-c2ccncc2)c1C` [Example B-2364]: 47.0% @; for `COC(=O)C(NC(=O)Cn1nc(-c2ccc(F)cc2)c(-c2ccncc2)c1C)C(C)C` (stereo not drawn) [Example B-2365]: 82.0% @.

The test is the same for the next values; noted with them: in vitro P38-alpha kinase; read-out: P38 alpha kinase IC50.
One may read the IC50 as the concentration at which inhibition is half-maximal. In the case of `COc1ccc(CNC(=O)Cn2nc(-c3ccc(F)cc3)c(-c3ccncc3)c2C)c(OC)c1` [Example B-2278], the half-maximal inhibitory concentration (IC50) was 800 nM.
In the case of `Cc1c(-c2ccncc2)c(-c2ccc(F)cc2)nn1CC(=O)NCCCN1CCCC1=O` [Example B-2280], the IC50 was 400 nM.
Turning to `Cc1c(-c2ccncc2)c(-c2ccc(F)cc2)nn1CC(=O)NCc1ccccn1` [Example B-2281], the IC50 was found to be 810 nM.
Still for that read-out and setting: the same measure for `Cc1c(-c2ccncc2)c(-c2ccc(F)cc2)nn1CC(=O)NCc1ccco1` [Example B-2282]: 910 nM; for `Cc1c(-c2ccncc2)c(-c2ccc(F)cc2)nn1CC(=O)NC[C@@H]1CCCO1` [Example B-2283]: 40 nM.
Turning to `Cc1c(-c2ccncc2)c(-c2ccc(F)cc2)nn1CC(=O)NCCN1CCOCC1` [Example B-2284], the IC50 is 4610 nM.
The same measure, in the same setting: the same measure for `Cc1c(-c2ccncc2)c(-c2ccc(F)cc2)nn1CC(=O)NCc1cccc2ccccc12` [Example B-2285]: 2290 nM; for `Cc1c(-c2ccncc2)c(-c2ccc(F)cc2)nn1CC(=O)NCCCCCCN(C)C` [Example B-2287]: 2560 nM; for `Cc1c(-c2ccncc2)c(-c2ccc(F)cc2)nn1CC(=O)NCCCCN1CCCC1` [Example B-2288]: 6510 nM.
On to `Cc1c(-c2ccncc2)c(-c2ccc(F)cc2)nn1CC(=O)NCc1ccc(C(C)(C)C)cc1` [Example B-2290], for which the IC50 was 2370 nM.
Take `Cc1c(-c2ccncc2)c(-c2ccc(F)cc2)nn1CC(=O)NCCc1cccnc1` [Example B-2291]: the IC50 amounted to 19 nM.
On the same count and under the same terms, the result for `COCCNC(=O)Cn1nc(-c2ccc(F)cc2)c(-c2ccncc2)c1C` [Example B-2292] reads 8820 nM; that for `CCCCNC(=O)Cn1nc(-c2ccc(F)cc2)c(-c2ccncc2)c1C` [Example B-2293], 2110 nM; that for `Cc1c(-c2ccncc2)c(-c2ccc(F)cc2)nn1CC(=O)NCCN(C)C` [Example B-2294], 1680 nM.
For the compound `COC(=O)CCCNC(=O)Cn1nc(-c2ccc(F)cc2)c(-c2ccncc2)c1C` [Example B-2295], the IC50 amounted to 1790 nM.
Consider `COc1ccc2[nH]cc(CCNC(=O)Cn3nc(-c4ccc(F)cc4)c(-c4ccncc4)c3C)c2c1` [Example B-2296], for which the IC50 stood at 17300 nM.
On the same count and under the same terms, the same measure for `COc1cc(CNC(=O)Cn2nc(-c3ccc(F)cc3)c(-c3ccncc3)c2C)cc(OC)c1OC` [Example B-2297]: 3590 nM; for `Cc1ccc(S(=O)(=O)NCCNC(=O)Cn2nc(-c3ccc(F)cc3)c(-c3ccncc3)c2C)cc1` [Example B-2299]: 1970 nM.
Still for that read-out and setting: the result for `Cc1c(-c2ccncc2)c(-c2ccc(F)cc2)nn1CC(=O)NCCCCc1ccccc1` [Example B-2300] reads 70 nM.
Same read-out and setting: the result for `COC(=O)CCNC(=O)Cn1nc(-c2ccc(F)cc2)c(-c2ccncc2)c1C` [Example B-2301] reads 180 nM; that for `Cc1c(-c2ccncc2)c(-c2ccc(F)cc2)nn1CC(=O)NCCc1ccc([N+](=O)[O-])cc1` [Example B-2302], 1000 nM.
With `Cc1c(-c2ccncc2)c(-c2ccc(F)cc2)nn1CC(=O)NCCc1ccc(Cl)c(Cl)c1` [Example B-2303], the IC50 was 11 nM.
`Cc1c(-c2ccncc2)c(-c2ccc(F)cc2)nn1CC(=O)NCCCN(C)C` [Example B-2304]: the IC50 is 1410 nM.
Still for that read-out and setting: the result for `COc1cc(CNC(=O)Cn2nc(-c3ccc(F)cc3)c(-c3ccncc3)c2C)cc(OC)c1` [Example B-2305] reads 540 nM; that for `Cc1c(-c2ccncc2)c(-c2ccc(F)cc2)nn1CC(=O)NCCCSC1CCCCC1` [Example B-2306], 5880 nM; that for `Cc1c(-c2ccncc2)c(-c2ccc(F)cc2)nn1CC(=O)NCCCN1CCCC1` [Example B-2307], 2290 nM.
With `Cc1c(-c2ccncc2)c(-c2ccc(F)cc2)nn1CC(=O)NCCc1csc2ccccc12` [Example B-2308], the IC50 was 660 nM.
As for `Cc1c(-c2ccncc2)c(-c2ccc(F)cc2)nn1CC(=O)NCC(=O)OC(C)(C)C` [Example B-2309], the IC50 was found to be 290 nM.
The same measure, in the same setting: the same measure for `CCNC(=O)Cn1nc(-c2ccc(F)cc2)c(-c2ccncc2)c1C` [Example B-2311]: 7180 nM; for `CCSCCNC(=O)Cn1nc(-c2ccc(F)cc2)c(-c2ccncc2)c1C` [Example B-2312]: 2930 nM.
`Cc1c(-c2ccncc2)c(-c2ccc(F)cc2)nn1CC(=O)NCCCOC(C)C` [Example B-2313]: the IC50 stood at 42300 nM.
On the same count and under the same terms, the result for `Cc1c(-c2ccncc2)c(-c2ccc(F)cc2)nn1CC(=O)NCCC#N` [Example B-2314] reads 11000 nM; that for `Cc1c(-c2ccncc2)c(-c2ccc(F)cc2)nn1CC(=O)NCCC1=CCCCC1` [Example B-2316], 460 nM; that for `Cc1c(-c2ccncc2)c(-c2ccc(F)cc2)nn1CC(=O)NCC(=O)c1ccccc1` [Example B-2317], 1000 nM.
